# Test results taken from patent US8372863B2, “Tetrahydro-1H-pyrrolo fused pyridones” (Merck Sharp & Dohme Corp., priority 2008, dated 2013).
# Structures can show the parent of a compound that is named as a salt.
# Target: PHD2 (Homo sapiens, UniProt Q9GZT9)
# Test: PHD2 / HIF-1α peptide hydroxylation assay with time resolved fluorescence readout (PHD2 binding activity)
# Type: biochemical
# Details: FLAG-tagged full length PHD2; 0.2 μM 2-oxoglutarate, 0.5 μM HIF-1α peptide; read-out: PHD2 Activity (PHD2 binding activity expressed as IC50)
# Procedure: After a 30 min preincubation at room temperature, the enzymatic reactions were initiated by the addition of 4 μL of substrates (final concentrations of 0.2 μM 2-oxoglutarate and 0.5 μM HIF-1α peptide biotinyl-DLDLEMLAPYIPMDDDFQL). After 2 hr at room temperature, the reactions were terminated and signals were developed by the addition of a 25 μL quench/detection mix to a final concentration of 1 mM ortho-phenanthroline, 0.1 mM EDTA, 0.5 nM anti-(His)6 LANCE reagent (Perkin-Elmer Life Sciences), 100 nM AF647-labeled streptavidin (Invitrogen), and 2 μg/ml (His)6-VHL complex (S. Tan(2001) Protein Expr. Purif 21, 224-234). The ratio of time resolved fluorescence signals at 665 and 620 nm was determined, and percent inhibition was calculated relative to an uninhibited control sample run in parallel.
# PHD2, sequence (Q9GZT9 whole entry): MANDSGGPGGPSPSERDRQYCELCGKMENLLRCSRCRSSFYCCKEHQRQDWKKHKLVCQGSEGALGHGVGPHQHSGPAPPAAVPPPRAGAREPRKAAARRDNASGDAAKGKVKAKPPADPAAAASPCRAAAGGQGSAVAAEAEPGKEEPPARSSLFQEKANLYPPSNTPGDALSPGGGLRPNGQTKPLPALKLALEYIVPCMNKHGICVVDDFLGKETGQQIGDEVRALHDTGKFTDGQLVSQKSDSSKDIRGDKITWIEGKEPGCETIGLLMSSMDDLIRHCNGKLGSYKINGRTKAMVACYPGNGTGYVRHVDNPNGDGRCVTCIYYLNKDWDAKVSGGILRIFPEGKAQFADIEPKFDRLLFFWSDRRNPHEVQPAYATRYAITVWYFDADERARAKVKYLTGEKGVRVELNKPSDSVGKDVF
row,IC50,SMILES
1,< 10 nM,"O=C(O)CNC(=O)c1c(O)c2c(n(Cc3ccc(C(F)(F)F)cc3)c1=O)CN(C(=O)c1cccc(Cl)c1)C2 [Example 8, N-({6-(3-chlorobenzoyl)-4-hydroxy-2-oxo-1-[4-(trifluoromethyl)benzyl]-2,5,6,7-tetrahydro-1H-pyrrolo[3,4-b]pyridin-3-yl}carbonyl)glycine]"
2,< 10 nM,"CC(=O)N1Cc2c(O)c(C(=O)NCC(=O)O)c(=O)n(Cc3ccc(C(F)(F)F)cc3)c2C1 [Example 9, N-({6-acetyl-4-hydroxy-2-oxo-1-[4-(trifluoromethyl)benzyl]-2,5,6,7-tetrahydro-1H-pyrrolo[3,4-b]pyridin-3-yl}carbonyl)glycine]"
3,< 10 nM,"CS(=O)(=O)N1Cc2c(O)c(C(=O)NCC(=O)O)c(=O)n(Cc3ccc(C(F)(F)F)cc3)c2C1 [Example 10, N-({4-hydroxy-6-(methylsulfonyl)-2-oxo-1-[4-(trifluoromethyl)benzyl]-2,5,6,7-tetrahydro-1H-pyrrolo[3,4-b]pyridin-3-yl}carbonyl)glycine]"
4,< 10 nM,"O=C(O)CNC(=O)c1c(O)c2c(n(Cc3ccc(C(F)(F)F)cc3)c1=O)CN(C(=O)N1CCOCC1)C2 [Example 11, N-({4-hydroxy-6-(morpholin-4-ylcarbonyl)-2-oxo-1-[4-(trifluoromethyl)benzyl]-2,5,6,7-tetrahydro-1H-pyrrolo[3,4-b]pyridin-3-yl}carbonyl)glycine]"

# The remaining lines, values behind:
row,SMILES,IC50
1,"CC1c2c(c(O)c(C(=O)NCC(=O)O)c(=O)n2Cc2ccc(-c3ccccc3)cc2)CN1C(=O)c1cscn1 (single isomer, unassigned) [55 Enantiomer 1]",< 10 nM
2,"CC1c2c(c(O)c(C(=O)NCC(=O)O)c(=O)n2Cc2ccc(-c3ccccc3)cc2)CN1C(=O)c1cscn1 (single isomer, unassigned) [55 Enantiomer 2]",10 to 100 nM
3,"C=CCCC(=O)N1Cc2c(O)c(C(=O)NCC(=O)O)c(=O)n(Cc3ccc(C(F)(F)F)cc3)c2C1 [Example 1, N-({4-hydroxy-2-oxo-6-pent-4-enoyl-1-[4-(trifluoromethyl)benzyl]-2,5,6,7-tetrahydro-1H-pyrrolo[3,4-b]pyridin-3-yl}carbonyl)glycine]",< 10 nM
4,"C=CCCC(=O)N1Cc2c(O)c(C(=O)NCC(=O)O)c(=O)n(Cc3ccc(-c4ccccc4)cc3)c2C1 [Example 2, N-{[1-(biphenyl-4-ylmethyl)-4-hydroxy-2-oxo-6-pent-4-enoyl-2,5,6,7-tetrahydro-1H-pyrrolo[3,4-b]pyridin-3-yl]carbonyl}glycine]",< 10 nM
5,"C=CCCC(=O)N1Cc2c(O)c(C(=O)NCC(=O)O)c(=O)n(Cc3nc4ccccc4s3)c2C1 [Example 3, N-{[1-(1,3-benzothiazol-2-ylmethyl)-4-hydroxy-2-oxo-6-pent-4-enoyl-2,5,6,7-tetrahydro-1H-pyrrolo[3,4-b]pyridin-3-yl]carbonyl}glycine]",< 10 nM
6,"C=CCCC(=O)N1Cc2c(O)c(C(=O)NCC(=O)O)c(=O)n(Cc3cccc(Br)c3)c2C1 [Example 4, N-{[1-(3-bromobenzyl)-4-hydroxy-2-oxo-6-pent-4-enoyl-2,5,6,7-tetrahydro-1H-pyrrolo[3,4-b]pyridin-3-yl]carbonyl}glycine]",< 10 nM
7,"C=CCCC(=O)N1Cc2c(O)c(C(=O)NCC(=O)O)c(=O)n(Cc3ccc(Br)cc3)c2C1C (stereo not shown) [Example 5, N-{[1-(4-bromobenzyl)-4-hydroxy-7-methyl-2-oxo-6-pent-4-enoyl-2,5,6,7-tetrahydro-1H-pyrrolo[3,4-b]pyridin-3-yl]carbonyl}glycine]",< 10 nM
8,"C=CCCC(=O)N1Cc2c(c(O)c(C(=O)NCC(=O)O)c(=O)n2Cc2ccc(Br)cc2)C1C (stereo not shown) [Example 6, N-{[1-(4-bromobenzyl)-4-hydroxy-5-methyl-2-oxo-6-pent-4-enoyl-2,5,6,7-tetrahydro-1H-pyrrolo[3,4-b]pyridin-3-yl]carbonyl}glycine]",< 10 nM
9,"O=C(O)CNC(=O)c1c(O)c2c(n(Cc3ccc(C(F)(F)F)cc3)c1=O)CNC2 [Example 7, N-({4-hydroxy-2-oxo-1-[4-(trifluoromethyl)benzyl]-2,5,6,7-tetrahydro-1H-pyrrolo[3,4-b]pyridin-6-ium-3-yl}carbonyl)glycine trifluoroacetate]",< 10 nM
